The values below come from patent publication US8975264B2, “Compound acting as a cannabinoid receptor-1 inhibitor” (Amorepacific Corporation, priority 2010, dated 2015).

The IC50 is the concentration needed to halve the response being measured. By inhibition is commonly meant the percentage by which the read-out fell short of the control.

This test deals with human CB1 (cannabinoid receptor 1) (Homo sapiens, UniProt P21554). The experiment in a line: CB1 receptor inhibition effect: calcium ion influx assay (Fluo-4 NW) in Chem-1 cells after 1 μM R-(+)-WIN55212-2. Type of test: cell-based. As for the experimental part: When cells in which the cannabinoid receptor 1 (CB1) is stably expressed are treated with a CB1 receptor agonist, the CB1 receptor is activated and influx of calcium ions into the cells increases. CB1 receptor inhibition effect of a test compound can be evaluated by measuring the degree of calcium influx inhibition after treating with the test compound.
First, Chem-1 cells (Chemicon International, #HTS019C) in which human CB1 cDNA is expressed stably were seeded onto a 96-well cell culture plate at a density of ˜50,000 cells/well and incubated overnight in a 5% CO2 incubator at 37° C. The next day, the culture medium was discarded and the cells were cautiously washed once using an assay buffer (HBSS containing 20 mM HEPES and 2.5 mM probenecid) with 200 μL/well. Calcium ion influx was measured using an assay kit (Fluo-4 NW calcium assay kit: Molecular Probes™, #F36206) according to the manufacturer's instructions. The compounds of Examples of desired concentration to be measured were comprised to 0.5% DMSO. For control, only 0.5% DMSO was used without the compounds of Examples. Reaction time was 10 minutes. After treating the Chem-1 cells stably expressing the CB1 receptor with 1 μM R-(+)-WIN55212-2 (Sigma, #W102), a CB1 receptor agonist, calcium ion (Ca^2+) flux induced thereby was measured for 80 seconds using Flex Station 3 (Molecular Device, USA).
The difference in calcium ion concentration of the cells treated with the compounds of Examples or those treated with 1 μM R-(+)-WIN55212-2 was obtained from the difference of the maximum and minimum values during the 80 seconds. Then, % inhibition of the compounds for the CB1 receptor was calculated using the following equation. % inhibition={1−(ΔRFUcompound−ΔRFUBlank)/(ΔRFUControl−ΔRFUBlank)}×100 [Equation]
ΔRFU: maximum relative fluorescence units−minimum relative fluorescence units
ΔRFUCompound: difference in maximum and minimum RFUs in the well where the compounds of Examples dissolved in DMSO to a final concentration of 0.5% and 1 μM R-(+)-WIN55212-2 dissolved in DMSO to a final concentration of 0.5% were added
ΔRFUBlank: difference in maximum and minimum RFUs in the well to which only 1% DMSO was added
ΔRFUControl: difference in maximum and minimum RFUs in the well where 0.5% DMSO and 1 μM R-(+)-WIN55212-2 dissolved in DMSO to a final concentration of 0.5% were added

[1] abbreviates: calcium ion influx in Chem-1 cells expressing human CB1, 1 μM R-(+)-WIN55212-2.

Sequence of human CB1 (cannabinoid receptor 1) (P21554 whole entry): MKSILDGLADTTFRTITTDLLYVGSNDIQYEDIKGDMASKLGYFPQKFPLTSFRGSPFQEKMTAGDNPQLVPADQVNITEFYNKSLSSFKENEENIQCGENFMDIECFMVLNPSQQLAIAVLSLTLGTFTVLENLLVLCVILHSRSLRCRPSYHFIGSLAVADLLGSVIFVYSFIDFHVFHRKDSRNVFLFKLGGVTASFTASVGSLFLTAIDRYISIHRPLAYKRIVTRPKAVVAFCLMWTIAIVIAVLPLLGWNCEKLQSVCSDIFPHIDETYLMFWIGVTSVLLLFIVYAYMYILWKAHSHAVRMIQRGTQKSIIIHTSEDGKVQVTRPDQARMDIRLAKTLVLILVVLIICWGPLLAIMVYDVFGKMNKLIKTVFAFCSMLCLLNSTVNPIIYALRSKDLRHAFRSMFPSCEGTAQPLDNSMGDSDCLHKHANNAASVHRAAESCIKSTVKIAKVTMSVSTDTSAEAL

For `CCOCc1nn2c(-c3ccc(F)cc3)cc(N3CCC[C@H]3CO)nc2c1-c1ccc(OC)cc1` [Example 209], under setting [1], the IC50 is 53 nM.

Turning to `Cc1ccc(-c2cnn3c(-c4cccc(F)c4)cc(N4CCC[C@H]4CO)nc23)cc1` [Example 270], under setting [1], the IC50 was found to be 440 nM.

Regarding `COCc1nn2c(-c3cccc(C(F)(F)F)c3)cc(N(C)CCO)nc2c1-c1ccc(OC)cc1` [Example 257], the concentration for half-maximal inhibition (IC50) under setting [1] is 14 nM.

Turning to `COc1ccc(-c2cc(N3CCC[C@H]3CO)nc3c(-c4ccc(C)cc4)c(C)nn23)cc1` [Example 27], under setting [1], the 50% inhibitory concentration (IC50) was 240 nM.

On to `COc1ccc(-c2c(C)nn3c(-c4ccc(Cl)cc4)cc(N4CCC[C@H]4CO)nc23)cc1` [Example 44], for which the half-maximal inhibitory concentration (IC50) under setting [1] was 160 nM.

In the case of `CCOCc1nn2c(-c3cccc(OC)c3)cc(N(C)CCO)nc2c1-c1ccc2c(c1)OCO2` [Example 252], under setting [1], the IC50 stood at 100 nM.

In the case of `CCc1ccc(-c2c(C)nn3c(-c4ccc(C)cc4)cc(N4CCC[C@H]4CO)nc23)cc1` [Example 182], the concentration for half-maximal inhibition (IC50) under setting [1] stood at 310 nM.

For the compound `CCOc1ccc(-c2c(C)nn3c(-c4cccc(C)c4)cc(N4CCC[C@H]4CO)nc23)cc1` [Example 158], the IC50 under setting [1] is 210 nM.

In the case of `Cc1ccc(-c2cc(N3CCC[C@H]3CO)nc3c(-c4ccc(Cl)cc4)c(C)nn23)cc1` [Example 11], under setting [1], the IC50 was found to be 270 nM.

Consider `COCc1nn2c(-c3cccc(C)c3)cc(N(C)CCO)nc2c1-c1ccc(Cl)cc1` [Example 262], for which the IC50 under setting [1] was determined as 18 nM.

In the case of `Cc1nn2c(-c3ccc(F)cc3)cc(N3CCC[C@H]3CO)nc2c1-c1ccccc1F` [Example 87], the half-inhibitory concentration (IC50) under setting [1] was 430 nM.

For `Cc1ccc(-c2c(C)nn3c(-c4cccc(C)c4)cc(N4CCC[C@H]4CO)nc23)cc1` [Example 156], the IC50 under setting [1] worked out at 46 nM.

Consider `Cc1nn2c(-c3ccc(F)cc3)cc(N3CCC[C@H]3CO)nc2c1-c1ccc(F)cc1F` [Example 77], for which, under setting [1], the IC50 turned out to be 350 nM.

In the case of `COc1ccc(-c2c(C)nn3c(-c4cccc(C(F)(F)F)c4)cc(N4CCC[C@H]4CO)nc23)cc1F` [Example 138], the IC50 under setting [1] turned out to be 210 nM.

`Cc1ccc(-c2c(C)nn3c(-c4cccc(F)c4)cc(N4CCC[C@H]4CO)nc23)cc1` [Example 110, (S)-(1-(3-(4-methylphenyl)-7-(3-fluorophenyl)-2-methylpyrazolo[1,5-a]pyrimidin-5-yl)pyrrolidin-2-yl)methanol]: the concentration for half-maximal inhibition (IC50) under setting [1] was found to be 80 nM.

On to `CCOCc1nn2c(-c3cccc(C(F)(F)F)c3)cc(N3CCC[C@H]3CO)nc2c1-c1ccc(Cl)cc1` [Example 208], for which the IC50 under setting [1] amounted to 7 nM.

Take `COc1cccc(-c2cc(N3CCC[C@H]3CO)nc3c(-c4ccc(F)cc4F)c(C)nn23)c1` [Example 190]: under setting [1], the IC50 was determined as 180 nM.

In the case of `COc1cccc(-c2cc(N3CCC[C@H]3CO)nc3c(-c4ccc(C)c(F)c4)c(C)nn23)c1` [Example 183], the IC50 under setting [1] worked out at 130 nM.

`Cc1nn2c(-c3cccc(C(F)(F)F)c3)cc(N3CCC[C@H]3CO)nc2c1-c1ccc(C(F)F)cc1` [Example 126]: the half-maximal inhibitory concentration (IC50) under setting [1] was determined as 69 nM.

On to `CCOc1ccc(-c2c(C)nn3c(-c4ccc(F)cc4)cc(N4CCC[C@H]4CO)nc23)cc1F` [Example 81], for which, under setting [1], the IC50 was determined as 300 nM.

On to `C=Cc1ccc(-c2c(C)nn3c(-c4ccc(F)cc4)cc(N4CCC[C@H]4CO)nc23)cc1` [Example 71], for which the IC50 under setting [1] is 210 nM.

As to `CCOCc1nn2c(-c3cccc(C(F)(F)F)c3)cc(N(C)CCO)nc2c1-c1ccc(Cl)cc1` [Example 244], the IC50 under setting [1] was determined as 7 nM.

Turning to `COc1cccc(-c2cc(N3CCC[C@H]3CO)nc3c(-c4ccc(Cl)cc4)c(C)nn23)c1` [Example 6], the half-inhibitory concentration (IC50) under setting [1] was determined as 200 nM.

In the case of `Cc1nn2c(-c3ccc(F)cc3)cc(N3CCC[C@H]3CO)nc2c1-c1ccc(OC(F)(F)F)cc1` [Example 84], under setting [1], the IC50 came out at 530 nM.

Take `Cc1cccc(-c2cc(N3CCC[C@H]3CO)nc3c(-c4ccc(C(F)(F)F)cc4)c(C)nn23)c1` [Example 163]: the half-inhibitory concentration (IC50) under setting [1] turned out to be 260 nM.

In the case of `CCOCc1nn2c(-c3cccc(C(F)(F)F)c3)cc(N3CCC[C@H]3CO)nc2c1-c1ccc(OC)cc1` [Example 212], the IC50 under setting [1] amounted to 26 nM.

As for `Cc1ccc(-c2c(C)nn3c(-c4cccc(C(F)(F)F)c4)cc(N4CCC[C@H]4CO)nc23)cc1F` [Example 137], the half-inhibitory concentration (IC50) under setting [1] amounted to 90 nM.

In the case of `Cc1nn2c(-c3cccc(C(F)(F)F)c3)cc(N3CCC[C@H]3CO)nc2c1-c1ccc(F)cc1F` [Example 135], under setting [1], the IC50 was found to be 120 nM.

On to `COc1ccc(-c2c(C)nn3c(-c4ccc(F)c(Cl)c4)cc(N4CCC[C@H]4CO)nc23)cc1` [Example 46], for which the half-maximal inhibitory concentration (IC50) under setting [1] turned out to be 190 nM.

For the compound `Cc1nn2c(-c3cccc(C(F)(F)F)c3)cc(N3CCC[C@H]3CO)nc2c1-c1ccc(F)c(F)c1` [Example 134], under setting [1], the IC50 was 190 nM.

As to `Cc1cc(-c2c(C)nn3c(-c4ccc(F)cc4)cc(N4CCC[C@H]4CO)nc23)ccc1F` [Example 101], under setting [1], the IC50 turned out to be 160 nM.

As for `CCOCc1nn2c(-c3cccc(C(F)(F)F)c3)cc(N(C)CCO)nc2c1-c1ccc(C)cc1` [Example 241], under setting [1], the half-inhibitory concentration (IC50) was found to be 10 nM.

Consider `Cc1nn2c(-c3cccc(C(F)(F)F)c3)cc(N3CCC[C@H]3CO)nc2c1-c1ccc2c(c1)OCO2` [Example 125], for which the half-maximal inhibitory concentration (IC50) under setting [1] came out at 90 nM.

With `COCc1nn2c(-c3ccc(F)cc3)cc(N3CCC[C@@H]3CO)nc2c1-c1ccc(OC)cc1` [Example 306], where the note is “Chem-1 cells stably expressing human CB1, agonist 1 μM R-(+)-WIN55212-2, compared with Examples 5 and 222”, the “CB1 receptor inhibition effect, (R)-isomers compared with (S)-isomers” value is “lower CB1 receptor inhibition effect than the compounds of Examples 5 and 222”. The inhibition at 1 µM (compound at 1 μM, calcium ion influx in Chem-1 cells expressing human CB1, 1 μM R-(+)-WIN55212-2) was less than 5%.

Consider `CCOCc1nn2c(-c3ccc(F)cc3)cc(N(C)CCO)nc2c1-c1ccc(C)cc1` [Example 239, 2-{[2-ethoxymethyl-7-(4-fluorophenyl)-3-(4-methylphenyl)-pyrazolo[1,5-a]pyrimidin-5-yl]methylamino}ethanol], for which the IC50 under setting [1] worked out at 28 nM.

Consider `Cc1cccc(-c2cc(N3CCC[C@H]3CO)nc3c(-c4ccc5c(c4)OCO5)c(C)nn23)c1` [Example 159], for which, under setting [1], the IC50 stood at 200 nM.

Turning to `Cc1nn2c(-c3cc(F)cc(F)c3)cc(N3CCC[C@H]3CO)nc2c1-c1ccc2c(c1)OCO2` [Example 62, (S)-(1-(3-(3,4-methylenedioxyphenyl)-7-(3,5-difluorophenyl)-2-methylpyrazolo[1,5-a]pyrimidin-5-yl)pyrrolidin-2-yl)methanol], the half-inhibitory concentration (IC50) under setting [1] came out at 70 nM.

Take `CCOCc1nn2c(-c3cccc(F)c3)cc(N(C)CCO)nc2c1-c1ccc(C)cc1` [Example 240]: the IC50 under setting [1] turned out to be 10 nM.

On to `CCc1ccc(-c2c(C)nn3c(-c4cccc(Cl)c4)cc(N4CCC[C@H]4CO)nc23)cc1` [Example 174], for which the half-maximal inhibitory concentration (IC50) under setting [1] is 220 nM.

`COCc1nn2c(-c3cccc(C#N)c3)cc(N3CCC[C@H]3CO)nc2c1-c1ccc(OC)cc1` [Example 228]: the IC50 under setting [1] was 22 nM.

For the compound `CCOc1ccc(-c2c(C)nn3c(-c4cc(F)cc(F)c4)cc(N4CCC[C@H]4CO)nc23)cc1` [Example 55], the IC50 under setting [1] worked out at 200 nM.

`Cc1ccc(-c2c(C)nn3c(-c4ccc(F)c(Cl)c4)cc(N4CCC[C@H]4CO)nc23)cc1` [Example 36]: under setting [1], the half-inhibitory concentration (IC50) is 100 nM.

For the compound `Cc1nn2c(-c3cccc(F)c3)cc(N3CCC[C@H]3CO)nc2c1-c1ccc(Cl)cc1` [Example 3], the half-inhibitory concentration (IC50) under setting [1] was 93 nM.

Regarding `Cc1ccc(-c2c(C)nn3c(-c4ccc(F)cc4)cc(N4CCC[C@H]4CO)nc23)cc1F` [Example 79], the IC50 under setting [1] came out at 100 nM.

`CCOCc1nn2c(-c3cccc(F)c3)cc(N(C)CCO)nc2c1-c1ccc(Cl)cc1` [Example 243]: the IC50 under setting [1] came to 7 nM.

`CCOCc1nn2c(-c3ccc(F)cc3)cc(N3CCC[C@H]3CO)nc2c1-c1ccc(Cl)cc1` [Example 206]: the IC50 under setting [1] stood at 8 nM.

Turning to `OC[C@@H]1CCCN1c1cc(-c2ccc(F)cc2)n2nc(C3CC3)c(-c3ccc(Cl)cc3)c2n1` [Example 196, (S)-(1-(3-(4-chlorophenyl)-7-(4-fluorophenyl)-2-cyclopropylpyrazolo[1,5-a]pyrimidin-5-yl)pyrrolidin-2-yl)methanol], the half-inhibitory concentration (IC50) under setting [1] is 140 nM.

For the compound `Cc1ccc(-c2c(C)nn3c(-c4ccc(F)cc4)cc(N4CCC[C@H]4CO)nc23)cc1` [Example 63, (S)-(1-(3-(4-methylphenyl)-7-(4-fluorophenyl)-2-methylpyrazolo[1,5-a]pyrimidin-5-yl)pyrrolidin-2-yl)methanol], the IC50 under setting [1] worked out at 41 nM.

`Cc1nn2c(-c3ccc(F)cc3)cc(N3CCC[C@H]3CO)nc2c1-c1ccc(C(F)(F)F)cc1` [Example 69]: the concentration for half-maximal inhibition (IC50) under setting [1] worked out at 220 nM.
